According to US11191855B2, “1,7-diaryl-1,6-heptadiene-3,5-dione derivatives, methods for the production and use thereof” (UNIVERSITÄTSKLINIKUM REGENSBURG, priority 2015, dated 2021):

Experiments:
E. coli ATCC 25922 [1] = assay: Comparative Example 3: phototoxicity by methods c.1) and c.2); format: cell-based, Escherichia coli; details: either of the methods c.1) and c.2)
Description: (§1) A 2-hour culture was divided into 1800 μL aliquots. After centrifuging at 20° C., 830 rcf, 5 min (5417R centrifuge, Eppendorf, Hamburg, Germany), the pellets were re-suspended in phosphate buffer (Dulbeccos' Modified Phosphate Saline, DPBS, Sigma-Aldrich) with either 10 or 50 μM of the corresponding photosensitizer, wherein the final volume was kept at 1800 μL.
(§2) The irradiation was carried out under constant shaking (MTS4, IKA, Staufen, Germany, 175 rpm) from below on a LED array with maximum homogeneity of the lighting surface. All of the controls were shaken in the same manner. The technical data for the light source are shown in Table 2; the total dose of light applied was 33.8 J/cm^2.
(§3) The determination of the colony forming units (CFU) was carried out in accordance with the method published by Miles and Misra (Miles, A A; Misra, S S, Irwin, J O (1938 Nov.). “The estimation of the bactericidal power of the blood” The Journal of hygiene 38 (6): 732-49). In this regard, serial dilutions (1:10) of the corresponding bacterial suspension were produced in DPBS. 5×10 μL of each bacterial dilution was then dripped onto Todd-Hewitt plates (with broth, additional 1.5% agar (Agar-Agar, Kobe I, Roth, Karlsruhe, Germany) and incubated at 37° C. for 24 h. Next, the number of surviving colony forming units was determined. All of the tests were carried out four times. […]

S. aureus ATCC 25923 [2] = assay: as above; format: cell-based, Staphylococcus aureus; details: either of the methods c.1) and c.2)
Description: as §1, §2, §3

[3] = Comparative Example 3: stability and molar extinction coefficient in aqueous solution; format: physicochemical; details: comparable with natural curcumin
Description: In a further test, the stability and phototoxicity of the following compounds were tested.
Incubation with the compound (71) (SACUR-01d) and the bacterial strains S. aureus ATCC 25923 and E. coli ATCC 25922 employed as well as irradiation with electromagnetic radiation and determination of the phototoxicity were carried out as described in sections c.1) and c.2) above. […] The free OH groups contribute greatly to this photo-instability because due to them, the compound can readily transform into the quinoid mesomer, and thus cleavage of one half of the molecule with the formation of ferulic acids or substituted vanillins is facilitated.
Aqueous solution A: distilled water.
Aqueous solution B: isotonic sodium chloride solution (0.9% by weight NaCl).
Aqueous solution C: PBS buffer, pH 7.4 (composition: see Sambrook, J.; Maniatis, T.; Russel, D. W.: Molecular cloning: a laboratory manual. Cold Spring Harbor Laboratory Press; 3rd edition (2001)).

E. coli ATCC 25922 [4] = assay: Phototoxicity test c.2) (BlueV light source, emission maximum approx. 420 nm, CFU count); format: cell-based, Escherichia coli; details: light dose 15.7 J/cm^2, approx. 420 nm, 15 min at 17.5 mW/cm^2, vs reference control
Description: A sample of the bacterial cell Staphylococcus. aureus (ATCC number: 25923) or Escherichia. coli (ATCC number: 25922) was removed from a cryo-freeze culture and cultured under aerobic conditions at 37° C. and 175 rpm overnight in an orbital shaker (MAXQ4000, Thermo Scientific, Dubuque, Iowa, USA). Growth was carried out in 20 mL Todd-Hewitt broth (Carl Roth, Karlsruhe, Germany) supplemented with 0.3% of yeast extract (AppliChem, Darmstadt, Germany).
In a second experiment, the photosensitizers (PS) used were dissolved in Millipore water and adjusted to various concentrations. 25 μL of a bacterial suspension grown overnight (˜108/mL) was incubated with 25 μL of photosensitizer solution of the various concentrations at room temperature for 10 seconds in darkness in a 96-well plate.
Next, the suspension was irradiated for 5-20 minutes. For the irradiation, the light source BlueV from Waldmann (Villingen-Schwenningen, Germany) was used, which emits light from 380 to 480 nm (emission maximum at approximately 420 nm). The applied energy density was 17.5 mW/cm^2.
Each experiment was accompanied by three controls in order to exclude side effect of the irradiation/photosensitizer (PS) on the survival of the bacteria: (i) no PS, only light (=light control), (ii) no light, only PS (=dark control) and (iii) neither light nor PS (=reference control). The determination of the colony forming units (CFU) per mL was also carried out in accordance with the method published by Miles, Misra and Irwin described above in section c.1). All of the tests were carried out four times.
The photosensitizers (PS) SACUR-01a, SACUR-03 and SACUR-07 were tested against the bacterial strains S. aureus ATCC 25923 and E. coli ATCC 25922 (FIGS. 21-23). All of the remaining PS were tested against S. aureus ATCC 25923 (FIGS. 24-33). FIGS. 21-33 show the logarithmic reduction after illumination with respect to the reference control.
The average reference control (arithmetic mean with standard deviation) (no light, no PS) was 3.6×10^8/mL for E. coli. The logarithmic reduction after illumination is shown with respect to the reference control.

S. aureus ATCC 25923 [5] = assay: as above; format: cell-based, Staphylococcus aureus; details: irradiation 5 minutes, approx. 420 nm, 17.5 mW/cm^2, 5.3 J/cm^2, vs reference control
Description: A sample of the bacterial cell Staphylococcus. aureus (ATCC number: 25923) or Escherichia. coli (ATCC number: 25922) was removed from a cryo-freeze culture and cultured under aerobic conditions at 37° C. and 175 rpm overnight in an orbital shaker (MAXQ4000, Thermo Scientific, Dubuque, Iowa, USA). Growth was carried out in 20 mL Todd-Hewitt broth (Carl Roth, Karlsruhe, Germany) supplemented with 0.3% of yeast extract (AppliChem, Darmstadt, Germany). In a second experiment, the photosensitizers (PS) used were dissolved in Millipore water and adjusted to various concentrations. 25 μL of a bacterial suspension grown overnight ( 108/mL) was incubated with 25 μL of photosensitizer solution of the various concentrations at room temperature for 10 seconds in darkness in a 96-well plate. Next, the suspension was irradiated for 5-20 minutes. For the irradiation, the light source BlueV from […], Germany) was used, which emits light from 380 to 480 nm (emission maximum at approximately 420 nm). The applied energy density was 17.5 mW/cm^2. Each experiment was accompanied by three controls in order to exclude side effect of the irradiation/photosensitizer (PS) on the survival of the bacteria: (i) no PS, only light (=light control), (ii) no light, only PS (=dark control) and (iii) neither light nor PS (=reference control). […] All of the tests were carried out four times. […] All of the remaining PS were tested against S. aureus ATCC 25923 (FIGS. 24-33). FIGS. 21-33 show the logarithmic reduction after illumination with respect to the reference control. […] The irradiation period was 5 minutes (emission maximum at approximately 420 nm) for an applied intensity of 17.5 mW/cm^2, i.e. an applied light energy (dosage) of 5.3 J/cm^2. The average reference control (arithmetic mean with standard deviation) (no light, no PS) was 3.9×10^8/mL. The logarithmic reduction after illumination is shown with respect to the reference control.

[6] = natural curcumin, background statement; cited from earlier work

Compound: CN(C)c1ccc(/C=C/C2=CC(=C/C=C3C=CC(=[N+](C)C)C=C3)/O[B-](F)(F)O2)cc1 [CRANAD-2, reference compound]
- Inactivation of E. coli ATCC 25922 upon illumination in the presence of the compound (E. coli ATCC 25922 [1]): could not be ascertained
- Inactivation of S. aureus ATCC 25923 upon illumination in the presence of the compound (S. aureus ATCC 25923 [2]): could not be ascertained

Compound: Cl.Cl.NCCOc1ccc(/C=C/C(=O)CC(=O)/C=C/c2ccc(OCCN)c(O)c2)cc1O [Curcumin 01d hydrochloride]
- Inactivation of E. coli ATCC 25922 upon illumination in the presence of the compound (E. coli ATCC 25922 [1]): Hardly any inactivation
- Inactivation of S. aureus ATCC 25923 upon illumination in the presence of the compound (S. aureus ATCC 25923 [2]): Hardly any inactivation
- Stability in aqueous solution [3]: low stability

Compound: CCCCCCCCOc1ccc(/C=C/C(=O)CC(=O)/C=C/c2ccc(OCCCCCCCC)c(OCCN)c2)cc1OCCN.Cl [Curcumin 07 hydrochloride]
- Effectiveness against E. Coli: Reduction in CFU in log10 at concentration of 10 μM (E. coli ATCC 25922 [4]; 10 μM): >1 log10
- Effectiveness against E. Coli: Reduction in CFU in log10 at concentration of 50 μM (E. coli ATCC 25922 [4]; 50 μM): >4 log10
- log reduction at 10 µM (S. aureus ATCC 25923 [5]; Staphylococcus aureus, ATCC25923, light or radiation study, 5 min, 10 μM, read-out: Effectiveness against S. aureus: Reduction in CFU in log10 at concentration of 10 μM): > 2
- log reduction at 50 µM (S. aureus ATCC 25923 [5]; Staphylococcus aureus, ATCC25923, light or radiation study, 5 min, 50 μM, read-out: Effectiveness against S. aureus: Reduction in CFU in log10 at concentration of 50 μM): > 5

Compound: COc1cc(C=CC(=O)CC(=O)C=Cc2ccc(O)c(OC)c2)ccc1O [curcumin, 1,7-bis-(4-hydroxy-3-methoxyphenyl)-1,6-heptadiene-3,5-dione]
- Solubility in water [6]: low solubility in water

Compound: (1E,6E)1,7- bis(4-(2- aminoethoxy)-3- methoxy- phenyl)hepta-1,6- diene-3,5-dione hydrochloride BF2 complex [Curcumin 01a BF-complex]
- Effectiveness against S. aureus: Reduction in CFU in log10 at concentration of 10 μM (S. aureus ATCC 25923 [5]; 10 μM): >5 log10
- Effectiveness against S. aureus: Reduction in CFU in log10 at concentration of 50 μM (S. aureus ATCC 25923 [5]; 50 μM): >5 log10
